# Experimental data as given in patent US20250186326A1, “Anti-Aging Compositions” (PROGELIFE, priority 2022, published 2025).
# Assays:
# [1] = test system: farnesylation of prelamin A; assay: Western blot of prelamin A in human skin fibroblasts (inhibition of farnesylation); format: cell-based; details: human skin fibroblasts AG13334, 72 h, Ritonavir 4 μM and Lopinavir 20 μM added
# Procedure: (§1) Control Human fibroblast from skin (AG13334) were obtained from Coriell Institute. Cells were maintained in culture according to supplier information at 37° C. in a humidified atmosphere containing 5% CO2.
# (§2) Fibroblasts were cultured 72 h without culture-media renewal.
# (§3) Pravastatin/Compound II.3a • 14. Pravastatin/Compound II.2 • 15. Pravastatin/Compound I.12 • 16. Pravastatin/Compound II.5
# (§4) Ritonavir (4 μM) and Lopinavir (20 μM) were added in all tested conditions to improve the lower limit of detection of prenylated prelamin A in western blots.
# (§5) Total fibroblast proteins were extracted after 72 hours treatment in 100 μl of NP40 (Invitrogen) with 1× protease and phosphatase inhibitor cocktail (Life Technologies). Lysates were incubated on ice for 30 minutes, with vortexing at 10-minute intervals. Finally, they were sonicated four times (20 sec each) and then centrifuged at 13000 rpm for 10 minutes at 4° C.
# (§6) Protein concentrations were determined with the BCA™ Protein Assay (Life Technologies).
# (§7) The following antibodies were used in this study: rabbit monoclonal anti-lamin A/C (ab108922, 1/1000, Abcam, Amsterdam, Netherlands), mouse monoclonal anti-prelamin A (MABT858, Millipore, Molsheim, France), mouse monoclonal anti-HDJ2 (MA5-12748, Thermoscientific, France). Secondary antibodies conjugated with IR-Dye 800CW or 680 were used according to the manufacturer's instructions (926-32213 and 926-68072, 1/5000, Li-COR Biosciences).
# (§8) Protein lysates were separated on NuPAGE™ Novex™ 8% Bis-Tris Midi Protein Gels (Life Technologies) and transferred to Immobilon-FL PVDF membranes (Millipore, Molsheim, France). Membranes were blocked for one hour in 1:1 diluted blocking buffer for near fluorescent western blotting (Rockland, Le Perray, France). Blocked membranes were incubated with primary antibody anti-prelamin A overnight at 4° C., following which they were washed and incubated with conjugated secondary antibody for one hour at room temperature. Then, this step was repeated with primary antibodies for HDJ2 and LMNA/C, and conjugated secondary antibodies.
# (§9) Bound antibodies were detected and analyzed on an Odyssey imaging system (Li-COR Biosciences, Bad Homburg, Germany) according to the manufacturer's instructions. Revert Protein Stain (Li-COR Biosciences) was used as a total protein loading control.
# farnesylation of HDJ2 = assay: Western blot of unfarnesylated HDJ2 in human skin fibroblasts (inhibition of farnesylation); format: cell-based; details: human skin fibroblasts AG13334, 72 h, Ritonavir 4 μM and Lopinavir 20 μM added
# Procedure: as §1, §2, §3, §4, §5, §6, §7, §8, §9
# wrinkles/fine lines = details: 3 ppm pal-KTTKS in moisturizer, topical, 12 weeks, split-face; cited from earlier work
# [2] = tested compound combined with Alendronate 10 μM
# [3] = tested compound combined with Pravastatin 10 μM
# [4] = controls: alendronate and/or pravastatin 10 μM without tested compound
Compound,"prelamin A band (western blot, FIG. 1) [1, 2]","unfarnesylated HDJ2 band (western blot, FIG. 1) (farnesylation of HDJ2; [2])","prelamin A band (western blot, FIG. 1) [1, 3]","unfarnesylated HDJ2 band (western blot, FIG. 1) (farnesylation of HDJ2; [3])",other results
C[C@@H]1O[C@@H](O[C@H]2[C@H](Oc3cc(O)c4c(c3)O[C@H](c3ccc(O)cc3)CC4=O)O[C@H](CO)[C@@H](O)[C@@H]2O)[C@H](O)[C@H](O)[C@H]1O [Compound I.8a],Clear bands,Clear bands,–,–,–
COc1ccc([C@@H]2CC(=O)c3c(O)cc(O[C@@H]4O[C@H](CO)[C@@H](O)[C@H](O)[C@H]4O[C@@H]4O[C@@H](C)[C@H](O)[C@@H](O)[C@H]4O)cc3O2)cc1O [Compound I.7a],Clear bands,Clear bands,–,–,–
Oc1ccc(/C=C/c2cc(O)cc(O)c2)cc1 [Compound I.1a],Clear bands,Clear bands,–,–,–
Oc1cc(O)c2c(c1)O[C@H](c1ccc(O)c(O)c1)[C@@H](O)C2 [Compound II.3a],–,–,Clear bands,Clear bands,–
OC[C@H]1O[C@@H](OCCc2ccc(O)cc2)[C@H](O)[C@@H](O)[C@@H]1O [Compound I.12],–,–,Clear bands,Clear bands,–
"NCCCC(O)(P(=O)(O)O)P(=O)(O)O [alendronate, reference compound]",–,–,–,–,"prelamin A band (western blot, FIG. 1) [1, 4]: essentially absent; unfarnesylated HDJ2 band (western blot, FIG. 1) (farnesylation of HDJ2; [4]): essentially absent"
O=C1c2cccc(O)c2C(=O)c2c(O)cc(CO)cc21 [Compound II.2],–,–,Clear bands,Clear bands,–
palmitoyl-lysine-threonine-threonine-lysine-serine [pal-KTTKS],–,–,–,–,reduction in wrinkles/fine lines vs. placebo control (quantitative technical and expert grader image analysis) (wrinkles/fine lines): significant improvement
O=c1cc(-c2ccc(O)cc2)oc2cc(O)cc(O)c12 [Compound II.1],–,–,Clear bands,Clear bands,–
O=c1c(O)c(-c2ccc(O)c(O)c2)oc2cc(O)cc(O)c12 [Compound II.5],–,–,Clear bands,Clear bands,–
O=c1c2cc(O)c(O)cc2oc2cc(O)c([C@@H]3O[C@H](CO)[C@@H](O)[C@H](O)[C@H]3O)c(O)c12 [Compound I.6a],Clear bands,Clear bands,–,–,–
